Results published in patent US6610289B2, “Mutated herpes simplex virus type 1 thymidine kinases and uses thereof” (The Board of Trustees of the University of Arkansas, priority 1998, dated 2003).

Experiments:
[1] = test system: HCT-116 cells; experiment: Metabolic labeling with [^3H]GCV, [^3H]thymidine, [^3H]dC, HCT-116 cell clones; assay type: cell-based, human; conditions: for Phosphorylated metabolite GCVDP / Phosphorylated metabolite GCVMP / Phosphorylated metabolite GCVTP: 116; for Phosphorylated metabolite TMP / Phosphorylated metabolite TTP: 116, [^3H]thymidine labeled
Method: For metabolic labeling, cells (1-2×10^6) were labeled in triplicate with 2 μCi [^3H]GCV ([…]) for 18 hours, then nucleotides were extracted from pelleted cells in 0.2 ml 70% methanol at 4° C. for 15 minutes as previously described (21, 24). An aliquot of each methanol soluble supernatant was analyzed for radioactivity by scintillation counting. The methanol insoluble pellets, representative of a crude DNA fraction, were resuspended in 0.15 ml water and also counted for radioactivity. For deoxpyrimidines, cells were grown to confluency in 60 cm^2 plates, and either 2 μCi [^3H]thymidine (2 μM final) or 2 μCi [^3H]dC (10 μM final) were added for 1 or 2 hours respectively prior to extraction in 70% methanol. Methanol-soluble extracts were concentrated by evaporation under nitrogen, and separated on PEI-cellulose thin layer chromatography plates developed in 0.8 M LiCl for GCV or 0.35 M LiCl for thymidine/dC as previously described (21).
NIH3T3 fibroblasts and the human tumor cell line HCT-116 were transfected with wild-type HSV-1TK or with one of three site specific mutants of amino acid Gln-125. From a panel of multiple HSV-1TK expressing clones, a subset of clones from each cell line expressing wild-type HSV-1 TK, the Asn-125 HSV-1 TK mutant (Asn-125TK) and the Glu-125 HSV-1 TK mutant (Glu-125TK) were selected for comparatively equivalent levels of HSV-1 TK protein expression based on Western blot determinations. In this study, these two sets of HSV-1 TK-expressing NIH 3T3 and HCT-116 cell lines were evaluated for intracellular metabolism of [^3H]GCV, [^3H]thymidine, or [^3H]dC. Cells were labeled with [^3H]GCV for 18 hours, then nucleotides were extracted in ice-cold 70% methanol as previously described (21, 24). The data in Table 3 summarize the amount of total nucleotide metabolites isolated in the methanol-soluble extracts (pmol/10^6 cells) as well as the total amount of methanol-insoluble metabolites representative of incorporation into DNA.
The methanol-soluble metabolites were further separated into their constituent phosphorylated GCV metabolites by thin layer chromatography (21).
Cells were grown to confluency and labeled with either [^3H]thymidine or [^3H]dC for 1 or 2 hours respectively prior to methanol extraction.

[2] = test system: HSV-1 TK; experiment: Substrate screen: phosphorylation of thymidine, TMP, GCV, ACV, dC, AZT by partially purified HSV-1 TKs; assay type: biochemical, herpes simplex virus type 1; conditions: for Product formation ACVMP: substrate ACV 50 μM; for Product formation AZTMP: substrate AZT 200 μM; for Product formation GCVMP: substrate GCV 50 μM; for Product formation TDP (TMPK activity): substrate TMP 20 μM; for Product formation dCMP: substrate dC 200 μM; for Product formation TMP: substrate thymidine 4 μM
Method: The activity of the purified HSV-1 TK was determined using the following standard reaction mixture for thymidine as a substrate (12): 3 μg of protein, 4 μM [^3H-methyl]thymidine (0.1 mCi/mmol), 20 mM potassium phosphate, pH 7.6, 1 mM DTT, 5 mM ATP, 5 mM MgCl2, 25 mM NaF, 40 mM KCl, and 0.5 mg/ml BSA in a total volume of 25 μl for 10 minutes at 37° C. To identify phosphorylated products, 20 μl of the reaction mixture was loaded onto a DE-81 filter and dried, washed once in 1 mM ammonium formate, twice more in 95% ethanol, and counted for radioactivity (12). Radioactivity was determined using an LKB 1214 Rackbeta liquid scintillation counter and corrected for background using controls with enzyme incubated in the absence of ATP. For TMPK activity, 20 μM [^3H-methyl]TMP was substituted for thymidine in the above assay mixture, and [^3H]TDP product was determined by separation from [^3H]TMP on thin layer PEI-cellulose plates developed in 0.35M LiCl (21). Amount of product converted to TDP was quantitated by scintillation counting of the excised TMP and TDP spots. The filter binding assay was used to quantitate the phosphorylation of [^3H]dC (200) μM and [^3H]AZT (200 μM) with the four enzymes. To compare relative enzymatic activities for [^3H]GCV (50 μM) and [^3H]ACV (50 μM), reactions were loaded onto small DE-52 columns packed in Pasteur pipettes as previously described (22).
As an initial screen for activity, each expressed HSV-1 TK enzyme was assayed for phosphorylation of the following substrates: thymidine (4 μM), TMP (20 μM), ACV (50 μM), GCV (50 μM), deoxycytidine (dC, 200 μM), or 3′-azido-2′,3′dideoxythymidine (AZT, 200 μM). Enzymatic conditions for optimal wild-type HSV-1 TK activities were utilized, thus results presented in Table 1 for each substrate were normalized to 100% values for comparative purposes. As expected, the wild-type Gln-125 HSV-1 TK efficiently phosphorylated each of these substrates. For each mutant, there was a striking decrease in their ability to phosphorylate pyrimidine nucleosides, and minimal TMPK activity for the TMP substrate.

[3] = test system: Caspase 3; experiment: Caspase 3 colorimetric assay; assay type: cell-based, human; conditions: 25 μM GCV, FIG. 8
Method: Parental HCT-116, wild-type HSV-1TK, Asn-125TK and Glu-125TK-expressing HCT-116 cells were treated with 0 (black bars) or 25 μM GCV (gray bars) for 4 days. Cell lysates were prepared and caspase 3 assays performed using a colorimetric ApoAlert CPP32/Caspase-3 kit as per manufacturers instructions (Clontech). Relative caspase 3 activity was determined by O.D. 405 nm readings of the cleaved DEVD-pNA substrate and presented as DVEDase activity.
Caspase 3-like activity was determined in parental HCT-116 and each HSV-1 TK expressing cell line treated for 50 hrs plus or minus 25 μM GCV using an Apo-Alert CPP32/Caspase 3 Colorimetric Assay kit with the peptide substrate, DEVD-pNA, as per manufacturers instructions (Clontech Laboratories, INC.). GCV-treated and untreated cells were grown in 25 cm^2 flasks, and cell numbers were determined using a hemocytometer prior to analysis. Assays were done in triplicate with protein extracts derived from 2×10^6 cells. The amount of Caspase 3-like activities were quantitated using a Shimadzu UV/VIS spectophotometer set at 405 nm.
Caspase 3 activity was determined in different cell extracts derived from GCV-treated and control cells using a calorimetric assay with the peptide substrate DVED (SEQ ID No. 4).

Substance	Phosphorylated metabolite GCVDP [1] [pmol/10^6 cells]	Phosphorylated metabolite GCVMP [1] [pmol/10^6 cells]	Phosphorylated metabolite GCVTP [1] [pmol/10^6 cells]	Phosphorylated metabolite TMP [1] [pmol/10^6 cells]	Phosphorylated metabolite TTP [1] [pmol/10^6 cells]	Metabolism of GCV and ACV (in words) ([2]; GCV 50 μM, ACV 50 μM)	Product formation ACVMP [2]	Product formation AZTMP [2]	Product formation GCVMP [2]	Product formation TDP (TMPK activity) [2]	Product formation dCMP [2]	Product formation TMP [2]	Decrease in GCVTP levels ([1]; HCT-116 cells, compared to wild-type and Asn-125TK cells) [fold]	DVED-ase activity of GCV-treated cells relative to GCV-treated wild-type or Asn-125 HSV-1TK-expressing cells [3]
Asn-125	104	95	533	0.2	0.9	retained most of these phosphorylation activities	92 % of wild-type Gln-125	9 % of wild-type Gln-125	85 % of wild-type Gln-125	6 % of wild-type Gln-125	0.2 % of wild-type Gln-125	22 % of wild-type Gln-125	–	–
Gln-125 (WT): wild-type herpes simplex virus type 1 thymidine kinase with glutamine at position 125, parent enzyme [reference compound]	101	96	415	1.2	9.5	–	100 % of wild-type Gln-125	100 % of wild-type Gln-125	100 % of wild-type Gln-125	100 % of wild-type Gln-125	100 % of wild-type Gln-125	100 % of wild-type Gln-125	–	–
Glu-125	2.5	3.0	18	0.2	0.4	–	7 % of wild-type Gln-125	48 % of wild-type Gln-125	5 % of wild-type Gln-125	7 % of wild-type Gln-125	0.2 % of wild-type Gln-125	43 % of wild-type Gln-125	≥ 23	three times lower
